What was measured:
Flpin-293-PDE4B2 cells = Flpin-293-PDE4B2 cells (Homo sapiens, UniProt Q07343); assay: cell-based; settings: for inhibition at 0.01 µM: read-out: Cell Inhibition % @10 nM, 10 nM, Flpin-293-PDE4B2 cells; for inhibition at 0.1 µM: read-out: Cell Inhibition % @100 nM, 100 nM, Flpin-293-PDE4B2 cells; for inhibition at 0.001 µM: read-out: Cell Inhibition % @1 nM, 1 nM, Flpin-293-PDE4B2 cells
PDE4B2 [1] = molecular target: T1, PDE4B2 (Homo sapiens, UniProt Q07343); assay: biochemical; settings: for inhibition at 0.01 µM: read-out: PDE4B2 Enzyme Inhibition % @10 nM; for inhibition at 0.1 µM: read-out: PDE4B2 Enzyme Inhibition % @100 nM
PDE4D2 = PDE4D2 (Homo sapiens, UniProt Q08499); assay: PDE4D2 enzyme experiment (AMP-Glo); settings: read-out: PDE4D2 IC50 Binding; enzyme assay
PDE4B2 [2] = molecular target: T1, PDE4B2; settings: read-out: PDE4B2 IC50; enzyme assay

Chain of Flpin-293-PDE4B2 cells (Q07343 1-564 isoform Q07343-2): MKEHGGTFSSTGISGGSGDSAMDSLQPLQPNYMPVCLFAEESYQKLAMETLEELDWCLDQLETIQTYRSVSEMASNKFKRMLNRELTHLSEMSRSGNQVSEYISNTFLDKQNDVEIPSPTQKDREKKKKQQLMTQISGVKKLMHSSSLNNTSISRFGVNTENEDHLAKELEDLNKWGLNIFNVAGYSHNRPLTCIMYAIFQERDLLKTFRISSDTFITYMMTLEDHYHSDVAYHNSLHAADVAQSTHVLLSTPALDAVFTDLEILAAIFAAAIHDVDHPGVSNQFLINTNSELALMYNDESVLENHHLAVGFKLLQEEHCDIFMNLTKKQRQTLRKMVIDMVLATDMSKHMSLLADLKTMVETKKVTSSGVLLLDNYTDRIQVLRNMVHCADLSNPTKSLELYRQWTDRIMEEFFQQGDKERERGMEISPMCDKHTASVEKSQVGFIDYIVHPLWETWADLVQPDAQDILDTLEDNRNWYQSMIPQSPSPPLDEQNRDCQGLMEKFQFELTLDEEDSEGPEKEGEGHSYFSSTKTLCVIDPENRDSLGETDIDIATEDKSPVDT
T1 sequence (Q07343 1-564 isoform Q07343-2, species assumed): as the sequence (Q07343 1-564 isoform Q07343-2) above
Chain of PDE4D2 (Q08499 303-809 limits assumed): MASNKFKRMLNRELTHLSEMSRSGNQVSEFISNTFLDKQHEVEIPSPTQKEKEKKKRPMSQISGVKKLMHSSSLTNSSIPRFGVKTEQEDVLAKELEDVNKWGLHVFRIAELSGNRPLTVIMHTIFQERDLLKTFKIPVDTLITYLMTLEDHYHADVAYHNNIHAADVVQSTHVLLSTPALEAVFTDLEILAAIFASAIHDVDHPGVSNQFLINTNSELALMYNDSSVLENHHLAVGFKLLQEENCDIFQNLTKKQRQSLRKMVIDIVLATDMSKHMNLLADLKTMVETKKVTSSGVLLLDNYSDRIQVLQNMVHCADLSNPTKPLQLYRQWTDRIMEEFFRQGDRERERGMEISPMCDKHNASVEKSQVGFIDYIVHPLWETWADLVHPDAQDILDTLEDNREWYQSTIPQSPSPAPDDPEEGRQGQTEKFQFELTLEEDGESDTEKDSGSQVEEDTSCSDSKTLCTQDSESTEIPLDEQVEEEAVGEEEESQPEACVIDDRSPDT

Compound	inhibition at 0.01 µM (Flpin-293-PDE4B2 cells) [%]	inhibition at 0.1 µM (Flpin-293-PDE4B2 cells) [%]	inhibition at 0.01 µM (PDE4B2 [1]) [%]	inhibition at 0.1 µM (PDE4B2 [1]) [%]	IC50 (PDE4D2) [nM]	inhibition at 0.001 µM (Flpin-293-PDE4B2 cells) [%]	IC50 (PDE4B2 [2]) [nM]
O=[N+]([O-])c1ccc2c(c1)CN(c1nc3c(c(NC4(CO)CCC4)n1)[S+]([O-])CC3)C2 (stereo not drawn) [Compound 61]	17.7	55.2	70.9	98.2	–	–	–
CC(C)(O)[C@@H]1CCN(c2ccc3c(c2)CCN(c2nc4c(c(NC5(CO)CCC5)n2)[S+]([O-])CC4)C3)C1 (stereo partly drawn) [Compound 173]	65.7	99.5	–	–	0.391	8.43	0.386
[O-][S+]1CCc2nc(N3CCc4cc(N5CCCC5)ccc4C3)nc(Nc3cnn(C4COC4)c3)c21 (stereo not drawn) [Compound 192]	60.3	99.2	–	–	0.45	15.4	0.14
Cn1nc2c(c1Cl)CN(c1nc3c(c(NC4(CO)CCC4)n1)[S+]([O-])CC3)CC2 (stereo not drawn) [Compound 58]	15.9	57.1	68.7	97.5	–	–	–
C[C@H]1c2ccc(N3CCCC3)cc2CCN1c1nc2c(c(NC3(CO)COC3)n1)[S+]([O-])CC2 (stereo partly drawn) [Compound 200]	74.4	99.9	–	–	0.119	14.7	0.117
[O-][S+]1CCc2nc(N3Cc4ccc(C(F)(F)F)cc4C3)nc(NC3(CO)CCC3)c21 (stereo not drawn) [Compound 62]	29.5	69.1	83.8	101	–	–	–
NC(=O)Cc1ccc(Nc2nc(N3CCc4cc(Cl)ccc4C3)nc3c2[S+]([O-])CC3)cc1 (stereo not drawn) [Compound 127]	73	100	–	–	0.424	9.78	0.164
CN1CC2CN(c3ccc4c(c3)CCN(c3nc5c(c(NC6(CO)CCC6)n3)[S+]([O-])CC5)C4)CC2C1 (stereo not drawn) [Compound 179]	51.5	92.2	–	–	0.46	9.95	0.502
[O-][S+]1CCc2nc(N3CCc4cc(N5CCCC5)ccc4C3)nc(Nc3cnn(CCO)c3)c21 (stereo not drawn) [Compound 191]	35.2	94.3	–	–	0.851	8.9	0.182
Cn1cc(CNc2nc(N3CCc4cc(Cl)ccc4C3)nc3c2[S+]([O-])CC3)cn1 (stereo not drawn) [Compound 142]	34.8	94.4	–	–	2.27	6.79	0.837
[O-][S+]1CCc2nc(N3CC[C@@H]4c5ccc(Cl)nc5OC[C@H]4C3)nc(NC3(CO)CCC3)c21 (stereo partly drawn) [Compound 119]	55.1	96	–	–	2.79	14	1.37
[O-][S+]1CCc2nc(N3CCc4cc(N5CCC6(COC6)C5)ccc4C3)nc(NC3(CO)CCC3)c21 (stereo not drawn) [Compound 165]	76.8	99.9	–	–	0.398	10.3	0.351
[O-][S+]1CCc2nc(N3CCc4cc(N5CCC(C(F)(F)F)C5)ccc4C3)nc(NC3(CO)CCC3)c21 (stereo not drawn) [Compound 156]	25.7	91.7	–	–	1.76	1.42	1.26
COC(=O)N1CC[C@H](Nc2nc(N3CCc4cc(N5CCCC5)ccc4C3)nc3c2[S+]([O-])CC3)C1 (stereo partly drawn) [Compound 196]	89.5	100	–	–	0.244	23.7	0.0693
[O-][S+]1CCc2nc(N3CCc4cc(N5CCCC5)ccc4C3)nc(N3CCC[C@H]3CO)c21 (stereo partly drawn) [Compound 188]	39.6	96.6	–	–	0.73	8.72	0.387
C[C@H]1c2ccc(N3CCCC3)cc2CCN1c1nc2c(c(N[C@@H]3CC[C@H]3O)n1)[S+]([O-])CC2 (stereo partly drawn) [Compound 201]	72.3	99.9	–	–	0.596	7.33	0.194
Cn1cc(Nc2nc(N3CCc4cc(N5CCCC5)ccc4C3)nc3c2[S+]([O-])CC3)cn1 (stereo not drawn) [Compound 168]	46.9	98.6	–	–	0.561	6.54	0.108
[O-][S+]1CCc2nc(N3CCc4cc(N5CC6COCC6C5)ccc4C3)nc(NC3(CO)CCC3)c21 (stereo not drawn) [Compound 154]	91	99.7	–	–	0.279	26.5	0.138
C[C@H]1c2ccc(N3CCCC3)cc2CCN1c1nc2c(c(NC3(CO)CCOCC3)n1)[S+]([O-])CC2 (stereo partly drawn) [Compound 212]	34.6	97.5	–	–	1.25	3.24	0.945
O=S1(=O)CCC(Nc2nc(N3CCc4cc(N5CCCC5)ccc4C3)nc3c2[S+]([O-])CC3)CC1 (stereo not drawn) [Compound 187]	93.8	101	–	–	0.116	25.3	0.45

Second part, the molecule after the results:

inhibition at 0.01 µM (Flpin-293-PDE4B2 cells) [%]	inhibition at 0.1 µM (Flpin-293-PDE4B2 cells) [%]	inhibition at 0.01 µM (PDE4B2 [1]) [%]	inhibition at 0.1 µM (PDE4B2 [1]) [%]	IC50 (PDE4D2) [nM]	inhibition at 0.001 µM (Flpin-293-PDE4B2 cells) [%]	IC50 (PDE4B2 [2]) [nM]	Compound
9	33.2	72.3	98.6	–	–	–	[O-][S+]1CCc2nc(N3Cc4ccc(Cl)cc4C3)nc(NC3(CO)CCC3)c21 (stereo not drawn) [Compound 33]
69.6	99	98.9	100	–	–	–	[O-][S+]1CCc2nc(N3CCc4ccc(Br)cc4CC3)nc(NC3(CO)CCC3)c21 (stereo not drawn) [Compound 46]
–	–	98.4	100	–	–	–	COc1ccc2c(c1)CCN(c1nc3c(c(NC4(CO)CCC4)n1)[S+]([O-])CC3)CC2 (stereo not drawn) [Compound 47]
26.7	86.9	–	–	1.29	1.97	0.729	CN1CCN(c2ccc3c(c2)CCN(c2nc4c(c(NC5(CO)CCC5)n2)[S+]([O-])CC4)C3)CC1 (stereo not drawn) [Compound 170]
77.4	100	–	–	1.64	19.8	0.951	CN(C)c1ccc2c(c1)CCN(c1nc3c(c(NC4(CO)CCC4)n1)[S+]([O-])CC3)C2 (stereo not drawn) [Compound 126]
72.5	100	–	–	0.252	13.9	0.113	[O-][S+]1CCc2nc(N3CCc4cc(N5CCCCC5)ccc4C3)nc(NC3(CO)CCC3)c21 (stereo not drawn) [Compound 143]
52.8	93.4	93.3	99.9	–	–	–	[O-][S+]1CCc2nc(N3CCc4sc(Br)cc4C3)nc(NC3(CO)CCC3)c21 (stereo not drawn) [Compound 55]
51.5	97.8	–	–	0.716	6.1	0.607	C[C@H]1CCN1c1ccc2c(c1)CCN(c1nc3c(c(NC4(CO)CCC4)n1)[S+]([O-])CC3)C2 (stereo partly drawn) [Compound 176]
18.1	66.6	74.5	99	–	–	–	[O-][S+]1CCc2nc(N3CCc4ccsc4C3)nc(NC3(CO)CCC3)c21 (stereo not drawn) [Compound 36]

— patent publication US20260285880A1, “SUBSTITUTED DIHYDROTHIENOPYRIMIDINE COMPOUND, PREPARATION METHOD THEREFOR, AND USE THEREOF” (SHANGHAI YIDI BIOTECHNOLOGY CO., LTD., priority 2023, published 2026)
